Reference: patent US20250333418A1, “PURINE COMPOUNDS, COMPOSITIONS COMPRISING THEM AND USES THEREOF” (Novo Nordisk A/S, priority 2022, published 2025)

Legend:
human CB1 receptor [1] = biological target: T1, human CB1 receptor (Homo sapiens, UniProt P21554); assay: bioSensAll β-arrestin2 plasma membrane translocation (+GRK2) BRET biosensor assay in HEK293 cells transfected with hCB1; test compound added before EC75-80 of agonist CP55,940 (100 nM); type: cell-based; settings: βArrestin2 (+GRK2) BRET biosensor, vs CP55,940 100 nM (EC75-80), read-out: CB1 wt βarr2 IC50
T1 construct: expressed in transfected cells; host or cells: HEK293
Description: (§1) Using polyethylenimine (PEI) transfection agent, HEK293 cells were transfected in suspension with the human CB1 receptor and one of the following bioSensAll® assays: GAPL-Gi2, or β-arrestin plasma membrane (PM) translocation biosensor (+GRK2). Cells were directly seeded in 96-well plates immediately following transfection.
(§2) Cells were incubated with coelenterazine (luciferase substrate) and different test compounds prior to the measurement of BRET signals.
(§3) Used in this project are i) Gα plasma membrane (GAPL) biosensors and the ii) β-arrestin plasma membrane translocation biosensor.
ii) The multimolecular β-arrestin membrane recruitment biosensors allow for real-time spatio-temporal monitoring of β-arrestin 1 and β-arrestin 2 following GPCR activation. Specifically, these β-arrestin sensors were designed to detect the recruitment of proteins to the plasma membrane (β-arrestin PM) with localization to compartment resulting in an increased BRET signal.
(§4) HEK293 cells were maintained in Dulbecco's Modified Eagle Medium (DMEM) (Wisent; cat #319-030-CL: without sodium pyruvate, with 4.5 g/L glucose, without L-glutamine) supplemented with 1% penicillin-streptomycin (Wisent; cat #450-201-EL) and 2 or 10% fetal bovine serum (Wisent cat #090150).
(§5) HEK293 cells were co-transfected with hCB1 and one of the above-listed bioSensAll® assays. For each transfection condition: • the total amount of transfected DNA was kept constant at 1 μg per mL of cell culture to be transfected; whenever necessary, salmon sperm DNA (Invitrogen, cat #15632011) was used as ‘carrier’ DNA to supplement plasmid DNA (i.e., biosensor and receptor); • the PEI (polyethylenimine 25 kDa linear, PolyScience, cat #23966) to DNA ratio (ug:ug) was fixed at 3:1.
(§6) Transfections were carried out as follows: • DNA and PEI were first diluted separately in 150 mM NaCl. The volume of the diluent in each tube corresponds to 5% of the cell culture volume to be transfected. • Once DNA and PEI were diluted, the PEI-containing solution was added to the DNA solution and the DNA/PEI mixture immediately vortexed for 5 seconds. • The DNA/PEI mixture was incubated for at least 20 minutes at room temperature to allow for the formation of DNA/PEI complexes. • During the incubation, HEK293 cells were detached, counted and re-suspended in culture medium (composition specified above). • At the end of the incubation period, the DNA/PEI mixture was added to the cells. • Cells were finally distributed in 96-well plates (White Opaque 96-well/Microplates, Greiner, cat #655083 or CulturPlate-96, White Opaque 96-well Microplate, PerkinElmer, cat #6005688) at a density of 30,000 cells per well.
(§7) At 48 hours post-transfection: • Using 450-Select TS Biotek plate washer, culture medium was aspirated and replaced with 100 μL of Hank's Balanced Salt Solution buffer (HBSS) (Wisent, cat #319-067CL: without red phenol; with sodium bicarbonate, with calcium and magnesium, with HEPES) per well. • Plates were then incubated (equilibrated) at 37° C., 5% CO2 for 60 minutes. • Increasing doses of test compounds were then added to each well using the HP D300e digital dispenser (Tecan). All compounds were assayed at the following 12 concentrations (in nM) with each biosensor: 0.000, 0.013, 0.040, 0.120, 0.320, 0.960, 2.80, 8.00, 24.0, 70.0, 205 and 600. • Three to 5 minutes later, an assay-specific effective concentration (EC)75-80 of agonist CP55,940 (i.e., 0.1 nM and 100 nM for G[…]i2-GAPL or […]Arrestin2 (+GRK2) assay, respectively) was added to wells previously injected with test compound (i.e., previous step 3). […]

human CB1 receptor [2] = biological target: T1, human CB1 receptor; assay: bioSensAll GAPL-Gi2 BRET biosensor assay in HEK293 cells transfected with hCB1; test compound added before EC75-80 of agonist CP55,940 (0.1 nM); type: cell-based; settings: vs CP55,940 0.1 nM (EC75-80), read-out: CB1 wt Gi2 IC50
Description: as §1, §2, §3
i) GAPL sensors are used to monitor the activation of heterotrimeric G proteins at the plasma membrane upon receptor stimulation. Specifically, these multimolecular BRET sensors detect the plasma membrane recruitment of proteins that interact with active Gα subunits in a G protein family-selective manner. G protein activation following receptor stimulation generally leads to an increase in the BRET signal.
as §4, §5, §6, §7

T1 sequence (P21554 whole entry): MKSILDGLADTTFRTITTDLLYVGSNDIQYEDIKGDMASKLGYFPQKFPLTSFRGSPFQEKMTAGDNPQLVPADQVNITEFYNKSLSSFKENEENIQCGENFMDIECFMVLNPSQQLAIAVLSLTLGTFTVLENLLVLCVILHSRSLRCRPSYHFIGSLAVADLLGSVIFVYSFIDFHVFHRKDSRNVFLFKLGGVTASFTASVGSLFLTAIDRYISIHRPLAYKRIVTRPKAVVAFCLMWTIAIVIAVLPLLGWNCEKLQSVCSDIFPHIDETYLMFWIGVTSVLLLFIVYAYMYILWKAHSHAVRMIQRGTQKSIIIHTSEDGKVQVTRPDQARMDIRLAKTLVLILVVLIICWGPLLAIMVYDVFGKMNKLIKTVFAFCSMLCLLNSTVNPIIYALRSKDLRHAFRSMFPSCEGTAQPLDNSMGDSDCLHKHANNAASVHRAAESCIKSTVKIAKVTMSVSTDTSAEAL

IC50 (human CB1 receptor [1]) [nM]	IC50 (human CB1 receptor [2]) [nM]	Compound
3.45	0.417	CC(CO)Oc1nc(N2CCC(C)(C(N)=O)CC2)c2nc(-c3ccccc3Cl)n(-c3ccc(Cl)cc3)c2n1 (single isomer, unassigned) [Compound 7, 1-[8-(2-chlorophenyl)-9-(4-chlorophenyl)-2-(2-hydroxy-1-methyl-ethoxy)purin-6-yl]-4-methyl-piperidine-4-carboxamide]
2.74	0.922	CC(O)COc1nc(N2CCC(C)(C(N)=O)CC2)c2nc(-c3ccccc3Cl)n(-c3ccc(Cl)cc3)c2n1 (single isomer, unassigned) [Compound 8, 1-[8-(2-chlorophenyl)-9-(4-chlorophenyl)-2-(2-hydroxypropoxy)purin-6-yl]-4-methyl-piperidine-4-carboxamide]
15.2	4.3	CC(C)C(=O)Nc1nc(N2CCC(C)(C(N)=O)CC2)c2nc(-c3ccccc3Cl)n(-c3ccc(Cl)cc3)c2n1 [Compound 1, 1-[8-(2-chlorophenyl)-9-(4-chlorophenyl)-2-(2-methylpropanoylamino)purin-6-yl]-4-methyl-piperidine-4-carboxamide]
4.78	0.861	CC1(C(N)=O)CCN(c2nc(OCCCO)nc3c2nc(-c2ccccc2Cl)n3-c2ccc(Cl)cc2)CC1 [Compound 6, 1-[8-(2-chlorophenyl)-9-(4-chlorophenyl)-2-(3-hydroxypropoxy)purin-6-yl]-4-methyl-piperidine-4-carboxamide]
2.92	0.398	CC(C)(O)COc1nc(N2CCC(C)(C(N)=O)CC2)c2nc(-c3ccccc3Cl)n(-c3ccc(Cl)cc3)c2n1 [Compound 9, 1-[8-(2-chlorophenyl)-9-(4-chlorophenyl)-2-(2-hydroxy-2-methyl-propoxy)purin-6-yl]-4-methyl-piperidine-4-carboxamide]
	9.05	CN(CP(C)(C)=O)c1nc(N2CCC(C)(C(N)=O)CC2)c2nc(-c3ccccc3Cl)n(-c3ccc(Cl)cc3)c2n1 [Compound 71, 1-[8-(2-chlorophenyl)-9-(4-chlorophenyl)-2-[dimethylphosphorylmethyl(methyl)amino]purin-6-yl]-4-methyl-piperidine-4-carboxamide]
	27.4	CC(=O)NC1(C)CN(c2nc(OCC(C)(C)OP(=O)(O)O)nc3c2nc(-c2ccccc2Cl)n3-c2ccc(Cl)cc2)C1 [Compound 239, 1-((6-(3-acetamido-3-methylazetidin-1-yl)-8-(2-chlorophenyl)-9-(4-chlorophenyl)-9H-purin-2-yl)oxy)-2-methylpropan-2-yl dihydrogen phosphate]

The next lines start with the compound.

Compound	IC50 (human CB1 receptor [1]) [nM]	IC50 (human CB1 receptor [2]) [nM]
CC(CO)Oc1nc(N2CCC(C(F)(F)F)CC2)c2nc(-c3ccccc3Cl)n(-c3ccc(Cl)cc3)c2n1 (single isomer, unassigned) [Compound 24, 2-[8-(2-chlorophenyl)-9-(4-chlorophenyl)-6-[4-(trifluoromethyl)-1-piperidyl]purin-2-yl]oxypropan-1-01]	1.91	0.707
CC(O)COc1nc(N2CCC(C(F)(F)F)CC2)c2nc(-c3ccccc3Cl)n(-c3ccc(Cl)cc3)c2n1 (single isomer, unassigned) [Compound 25, 1-[8-(2-chlorophenyl)-9-(4-chlorophenyl)-6-[4-(trifluoromethyl)-1-piperidyl]purin-2-yl]oxypropan-2-ol]	2.06	0.706
CCOC1(C(N)=O)CCCN(c2nc(OCC(C)(C)O)nc3c2nc(-c2ccccc2Cl)n3-c2ccc(Cl)cc2)C1 (single isomer, unassigned) [Compound 216]	8.61	1.77
CCOC1(C(N)=O)CCCN(c2nc(OCC(C)(C)O)nc3c2nc(-c2ccccc2Cl)n3-c2ccc(Cl)cc2)C1 (single isomer, unassigned) [Compound 217]	73.7	27
CN(C)C(=O)c1nc(N2CCC(C)(C(N)=O)CC2)c2nc(-c3ccccc3Cl)n(-c3ccc(Cl)cc3)c2n1 [Compound 2, 6-(4-carbamoyl-4-methyl-1-piperidyl)-8-(2-chlorophenyl)-9-(4-chlorophenyl)-N,N-dimethyl-purine-2-carboxamide]	63.5	10.5
Cc1cnn(-c2nc(N3CCC(C)(C(N)=O)CC3)c3nc(-c4ccccc4Cl)n(-c4ccc(Cl)cc4)c3n2)c1 [Compound 3, 1-[8-(2-chlorophenyl)-9-(4-chlorophenyl)-2-(4-methylpyrazol-1-yl)purin-6-yl]-4-methyl-piperidine-4-carboxamide]	12.2	1.38
Cc1ccn(-c2nc(N3CCC(C)(C(N)=O)CC3)c3nc(-c4ccccc4Cl)n(-c4ccc(Cl)cc4)c3n2)n1 [Compound 4, 1-[8-(2-chlorophenyl)-9-(4-chlorophenyl)-2-(3-methylpyrazol-1-yl)purin-6-yl]-4-methyl-piperidine-4-carboxamide]	10.4	2.03
CC1(C(N)=O)CCN(c2nc(N3CCNC[C@H]3CO)nc3c2nc(-c2ccccc2Cl)n3-c2ccc(Cl)cc2)CC1 [Compound 5, 1-[8-(2-chlorophenyl)-9-(4-chlorophenyl)-2-[(2S)-2-(hydroxymethyl)piperazin-1-yl]purin-6-yl]-4-methyl-piperidine-4-carboxamide]	16	0.961
CC(C)(O)COc1nc(NCCO)c2nc(-c3ccccc3Cl)n(-c3ccc(Cl)cc3)c2n1 [Compound 98]	> 5000	
Cc1nc(C#N)ccc1-c1nc2c(N3CCC(C)(C(N)=O)CC3)nc(OCC(C)(C)O)nc2n1-c1ccc(Cl)cc1 [Compound 107, 1-[9-(4-chlorophenyl)-8-(6-cyano-2-methyl-3-pyridyl)-2-(2-hydroxy-2-methyl-propoxy)purin-6-yl]-4-methyl-piperidine-4-carboxamide]		27.7
CC(C)(O)COc1nc(N2CCC(C)(C(=O)O)CC2)c2nc(-c3ccc(C#N)nc3)n(-c3ccc(Cl)cc3)c2n1 [Compound 118, 1-[9-(4-chlorophenyl)-8-(6-cyano-3-pyridyl)-2-(2-hydroxy-2-methyl-propoxy)purin-6-yl]-4-methyl-piperidine-4-carboxylic acid]	> 5000	
Cc1cnccc1-c1nc2c(N3CCC(C)(C(N)=O)CC3)nc(OCC(C)(C)O)nc2n1-c1ccc(Cl)cc1 [Compound 122, 1-[9-(4-chlorophenyl)-2-(2-hydroxy-2-methyl-propoxy)-8-(3-methyl-4-pyridyl)purin-6-yl]-4-methyl-piperidine-4-carboxamide]		14.6
CN(CC(C)(C)O)c1nc(N2CC(C(N)=O)C2)c2nc(-c3ccc(C#N)nc3)n(-c3ccc(Cl)cc3)c2n1 [Compound 129]		438
NC(=O)N1CC(Nc2nc(N3CCC[C@H]3CO)nc3c2nc(-c2ccccc2Cl)n3-c2ccc(Cl)cc2)C1 [Compound 175]		5.3
CCOC1(C(=O)O)CCN(c2nc(OCC(C)(C)O)nc3c2nc(-c2ccccc2Cl)n3-c2ccc(Cl)cc2)CC1 [Compound 218]		7.82
CC(C)(O)COc1nc(N2CCNCC2)c2nc(-c3ccccc3Cl)n(-c3ccc(Cl)cc3)c2n1 [Compound 219]		59.7
CC(C)(O)COc1nc(N2CC(C(N)=O)C2)c2nc(-c3ccccc3Cl)n(-c3ccc(Cl)cc3)c2n1 [Compound 238]		13.8
